Where a SMILES comes first, the peptide text is derived from it. Bridges are numbered along the chain shown (N, C = ends). [ ]: non-standard residue; d: D form. The star is where a group is joined. hPhe(3-Cl-4-CF3) = N[C@@H](CCc1ccc(C(F)(F)F)c(Cl)c1)C(=O)O; NPrPhe(4-CF3) = CCCN[C@@H](Cc1ccc(C(F)(F)F)cc1)C(=O)O; NEtPhe(4-CF3) = CCN[C@@H](Cc1ccc(C(F)(F)F)cc1)C(=O)O; NMeGly(cPent) = CN[C@H](C(=O)O)C1CCCC1; Hyp = O=C(O)[C@@H]1C[C@@H](O)CN1; NMeD = CN[C@@H](CC(=O)O)C(=O)O; NMeL = CN[C@@H](CC(C)C)C(=O)O; Oxazolidin(3-yl) = C1CN(*)CO1; Ac6c = NC1(C(=O)O)CCCCC1; Morpholide = C1CN(*)CCO1; Ac5c = NC1(C(=O)O)CCCC1; Ac4c = NC1(C(=O)O)CCC1; Sar = CNCC(=O)O
Experiments:
[1] = molecular target: GDP-bound HRAS wild-type protein (Homo sapiens, UniProt P01112); test: Binding to HRAS by surface plasmon resonance (SPR), Single Cycle Kinetics; details: SPR; for HRAS/KRAS (ratio of KD value with respect to HRAS to KD value with respect to KRAS): GDP-bound HRAS wild-type vs GDP-bound KRAS wild-type
[2] = molecular target: GDP-bound NRAS wild-type protein (Homo sapiens, UniProt P01111); test: Binding to NRAS by surface plasmon resonance (SPR), Single Cycle Kinetics; details: SPR; for NRAS/KRAS (ratio of KD value with respect to NRAS to KD value with respect to KRAS): GDP-bound NRAS wild-type vs GDP-bound KRAS wild-type
GDP-bound NRAS wild-type protein, sequence (P01111 whole entry): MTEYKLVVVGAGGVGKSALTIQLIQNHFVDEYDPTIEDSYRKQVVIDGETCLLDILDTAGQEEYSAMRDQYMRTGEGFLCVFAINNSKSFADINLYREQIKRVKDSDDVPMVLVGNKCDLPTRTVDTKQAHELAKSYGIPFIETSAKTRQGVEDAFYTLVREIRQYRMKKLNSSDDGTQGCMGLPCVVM

GDP-bound HRAS wild-type protein, sequence (P01112 whole entry): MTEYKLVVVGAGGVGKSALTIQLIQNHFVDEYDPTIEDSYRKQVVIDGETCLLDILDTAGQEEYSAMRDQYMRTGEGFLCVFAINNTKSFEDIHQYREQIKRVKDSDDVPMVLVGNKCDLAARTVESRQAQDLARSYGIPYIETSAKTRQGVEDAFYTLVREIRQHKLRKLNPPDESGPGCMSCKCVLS

CCO[C@@H]1C[C@H]2C(=O)NC3(CC(C)(C)C3)C(=O)N(C)[C@@H](C(CC)CC)C(=O)N(C)[C@H](C(=O)N(C)C)CC(=O)N(C)[C@@H](CC3CCC3)C(=O)N[C@@H]([C@@H](C)CC)C(=O)N(C)CC(=O)N(C)[C@H]3C/C=C\CCN(C3=O)[C@@H](Cc3ccc(C(F)(F)F)cc3)C(=O)N(C)CC(=O)N[C@@H](CCc3ccc(Cl)c(Cl)c3)C(=O)N2C1 [PP2180]
HRAS/KRAS (ratio of KD value with respect to HRAS to KD value with respect to KRAS) [1]: A (a compound having 10 or more and less than 20 is denoted as A) | NRAS/KRAS (ratio of KD value with respect to NRAS to KD value with respect to KRAS) [2]: AA (a compound having 20 or more is denoted as AA)

CC[C@H](C)[C@@H]1NC(=O)[C@H](CC(C)C)N(C)C(=O)C[C@@H](C(=O)N2CCOCC2)N(C)C(=O)[C@H](C2CCCC2)N(C)C(=O)C2(CCCCC2)NC(=O)[C@@H]2CCCN2C(=O)[C@H](CCc2ccc(C(F)(F)F)c(Cl)c2)NC(=O)CN(C)C(=O)[C@H](Cc2ccc(C(F)(F)F)cc2)N(CC)C(=O)CN(C)C(=O)CN(C)C1=O [PP0236] ([NMeL]I[Sar][Sar][NEtPhe(4-CF3)][Sar][hPhe(3-Cl-4-CF3)]P[Ac6c][NMeGly(cPent)][NMeD]-Morpholide; lactam N-11)
HRAS/KRAS (ratio of KD for GDP-bound HRAS wild-type to KD for KRAS) ([1]; KD ratio HRAS/KRAS): C (A compound having a KD ratio of 0.1 or more and less than 3 is denoted as C) | NRAS/KRAS (ratio of KD for GDP-bound NRAS wild-type to KD for KRAS) ([2]; KD ratio NRAS/KRAS): B (a compound having 3 or more and less than 10 is denoted as B)

CCCN1C(=O)CN(C)C(=O)CN(C)C(=O)[C@H]([C@@H](C)CC)NC(=O)[C@H](CC(C)C)N(C)C(=O)C[C@@H](C(=O)N2CCOCC2)N(C)C(=O)[C@H](C2CCCC2)N(C)C(=O)C2(CCC2)NC(=O)[C@@H]2C[C@@H](OCC)CN2C(=O)[C@H](CCc2ccc(C(F)(F)F)c(Cl)c2)NC(=O)CN(C)C(=O)[C@@H]1Cc1ccc(C(F)(F)F)cc1 [PP0392] ([NMeL]I[Sar][Sar][NPrPhe(4-CF3)][Sar][hPhe(3-Cl-4-CF3)][Hyp](Et)[Ac4c][NMeGly(cPent)][NMeD]-Morpholide; lactam N-11)
HRAS/KRAS (ratio of KD for GDP-bound HRAS wild-type to KD for KRAS) ([1]; KD ratio HRAS/KRAS): C (A compound having a KD ratio of 0.1 or more and less than 3 is denoted as C) | NRAS/KRAS (ratio of KD for GDP-bound NRAS wild-type to KD for KRAS) ([2]; KD ratio NRAS/KRAS): B (a compound having 3 or more and less than 10 is denoted as B)

CCO[C@@H]1C[C@H]2C(=O)NC3(CC(C)(C)C3)C(=O)N(C)[C@@H](C3CCCC3)C(=O)N(C)[C@H](C(=O)N(C)C)CC(=O)N(C)[C@H]3CCCCCc4ccc(cc4)C[C@@H](C(=O)N(C)CC(=O)N[C@@H](CCc4ccc(C(F)(F)F)c(OC)c4)C(=O)N2C1)N1CC/C=C\C[C@@H](C1=O)N(C)C(=O)CN(C1CC1)C(=O)[C@H]([C@@H](C)CC)NC3=O [PP3075]
HRAS/KRAS (ratio of KD value with respect to GDP-bound HRAS wild-type protein to KD value with respect to KRAS) ([1]; KD ratio HRAS/KRAS, GDP-bound wild-type proteins): A (a compound having 10 or more and less than 20 is denoted as A) | NRAS/KRAS (ratio of KD value with respect to GDP-bound NRAS wild-type protein to KD value with respect to KRAS) ([2]; KD ratio NRAS/KRAS, GDP-bound wild-type proteins): A (a compound having 10 or more and less than 20 is denoted as A)

CCO[C@@H]1C[C@H]2C(=O)NC3(CC(C)(C)C3)C(=O)N(C)[C@@H](C(CC)CC)C(=O)N(C)[C@H](C(=O)N3CCCC3)CC(=O)N(C)[C@@H](CC)C(=O)N[C@@H]([C@@H](C)CC)C(=O)N(C)CC(=O)N(C)[C@H]3C/C=C\CCN(C3=O)[C@@H](Cc3ccc(C)cc3)C(=O)N(C)CC(=O)N[C@@H](CCc3cc(F)c(C(F)(F)F)c(F)c3)C(=O)N2C1 [PP2149]
HRAS/KRAS (ratio of KD value with respect to HRAS to KD value with respect to KRAS) [1]: A (a compound having 10 or more and less than 20 is denoted as A) | NRAS/KRAS (ratio of KD value with respect to NRAS to KD value with respect to KRAS) [2]: A (a compound having 10 or more and less than 20 is denoted as A)

CCO[C@@H]1C[C@H]2C(=O)NC3(CC(C)(C)C3)C(=O)N(C)[C@@H](C3CCCC3)C(=O)N(C)[C@H](C(=O)N(CC)CC)CC(=O)N(C)[C@@H](COC)C(=O)N[C@@H]([C@@H](C)CC)C(=O)N(C)CC(=O)N(C)[C@H]3C/C=C\CCN(C3=O)[C@@H](Cc3ccc(C)cc3)C(=O)N(C)CC(=O)N[C@@H](CCc3ccc(C(F)(F)F)c(Cl)c3)C(=O)N2C1 [PP2400]
HRAS/KRAS (ratio of KD value with respect to HRAS to KD value with respect to KRAS) [1]: A (a compound having 10 or more and less than 20 is denoted as A) | NRAS/KRAS (ratio of KD value with respect to NRAS to KD value with respect to KRAS) [2]: A (a compound having 10 or more and less than 20 is denoted as A)

CCCN1C(=O)CN(C)C(=O)CN(C)C(=O)[C@H]([C@@H](C)CC)NC(=O)[C@H](CC(C)C)N(C)C(=O)C[C@@H](C(=O)N2CCOC2)N(C)C(=O)[C@H](C2CCCC2)N(C)C(=O)C2(CCCC2)NC(=O)[C@@H]2CCCN2C(=O)[C@H](CCc2ccc(C(F)(F)F)c(Cl)c2)NC(=O)CN(C)C(=O)[C@@H]1Cc1ccc(C(F)(F)F)cc1 [PP0174] ([NMeL]I[Sar][Sar][NPrPhe(4-CF3)][Sar][hPhe(3-Cl-4-CF3)]P[Ac5c][NMeGly(cPent)][NMeD]-{Oxazolidin(3-yl)}; lactam N-11)
HRAS/KRAS (ratio of KD for GDP-bound HRAS wild-type to KD for KRAS) ([1]; KD ratio HRAS/KRAS): B (a compound having 3 or more and less than 10 is denoted as B) | NRAS/KRAS (ratio of KD for GDP-bound NRAS wild-type to KD for KRAS) ([2]; KD ratio NRAS/KRAS): B (a compound having 3 or more and less than 10 is denoted as B)

Source: patent US20250230193A1, “CYCLIC COMPOUND HAVING SELECTIVE KRAS INHIBITORY EFFECT ON HRAS AND NRAS” (CHUGAI SEIYAKU KABUSHIKI KAISHA, priority 2022, published 2025)
